{"source": "paper PMC7738880", "about": "“Identification of novel CD44v6-binding peptides that block CD44v6 and deliver a pro-apoptotic peptide to tumors to inhibit tumor growth and metastasis in mice” (Theranostics, 2021)", "key": {"[1]": {"biological_target": "T1, CD44v6 from MDA-MB231 cell lysates (Homo sapiens, UniProt P16070)", "T1 sequence (P16070 386-428 limits assumed)": "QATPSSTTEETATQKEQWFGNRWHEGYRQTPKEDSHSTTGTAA", "assay": "Pull-down assay with biotin-labeled peptides", "assay_type": "binding", "conditions": "biotinylated peptide 25 µM, streptavidin beads, immunoblotting", "method": "Biotin-labeled peptides were incubated with streptavidin magnetic beads (Bioclone Inc., San Diego, CA) at room temperature for 30-60 min under gentle rotation. MDA-MB231 cells were then lysed using a cell lysis reagent (ThermoFisher Scientific) containing protease inhibitors. The lysates were incubated with the biotinylated peptide (25 µM) and streptavidin bead complexes at room temperature for 30-60 min under gentle rotation. In another set of assays, the recombinant human CD44v6 protein was used instead of the cell lysates. The complexes were pulled down and incubated with an elution buffer containing 2 mM D-biotin (Bioclone Inc.) for 5-10 min, and the eluates were collected and subjected to electrophoresis."}, "[2]": {"system": "MDA-MB231 cells", "assay": "Transwell cell migration and invasion assays, MDA-MB231", "assay_type": "cell-based, human", "conditions": "peptide 20 µM, HGF 25 ng/mL, 24 h", "method": "Transwell chambers (24-wells) with 8 μm pores were obtained from Corning (Corning, NY). MDA-MB231 and 4T1 cells (1 × 10^6 cells) were harvested, resuspended in 200 μL of DMEM containing CD44v6-binding peptides (20 µM), and then seeded into the upper chamber of the transwell chambers. The lower chamber was filled with 600 μL of DMEM containing 25 ng/mL HGF. After 24 h of incubation, cells that migrated into the reverse side of the transwell membrane were fixed with methanol, stained with crystal violet, and then counted under a light microscope. An average of five visual fields was obtained. For invasion assays, the transwell membrane was pre-coated with 300 µg/mL of Matrigel (Corning)."}, "[3]": {"system": "4T1-luc cells", "assay": "4T1-luc orthotopic spontaneous metastasis model", "assay_type": "in vivo", "conditions": "for tumor growth, lung metastasis, survival rate and TUNEL-stained apoptosis, peptide combined with crizotinib 12.5 mg/kg: peptide 14.2 mg/kg i.v. plus crizotinib 12.5 mg/kg oral, versus crizotinib alone 25 mg/kg; for primary tumor growth, lung metastasis and survival, peptide combined with crizotinib 25 mg/kg: peptide 14.2 mg/kg i.v. plus crizotinib 25 mg/kg oral, versus single treatment; for luminescence signals and total photon flux from the whole body: n = 6/group; for number of lung tumor nodules: relative to saline and control peptide; for hematologic parameters and liver and kidney functional marker levels: peptide alone or in combination with crizotinib, compared with control peptide, n = 3/group", "method": "4T1-luc cells (1 × 10^6 cells) were orthotopically inoculated into the mammary fat pads in 6-week-old female BALB/c mice. Panc-1 cells (1 × 10^6 cells) were subcutaneously inoculated into lower right flank in 6-week-old female BALB/c nude mice To monitor 4T1-luc tumor growth, mice were intraperitoneally injected with D-luciferin (150 mg/kg body weight), incubated for 10 min, and subjected to a whole-body bioluminescence imaging using the IVIS imaging system (Perkin Elmer). At two weeks after the inoculation, mice were randomly sorted into groups based on the luminescence intensity (4T1-luc) or tumor size (Panc-1). CD44v6-binding peptides were administered intravenously to 4T1 tumor-bearing mice (n = 6 per group) through the tail vein (14.2 mg/kg body weight, thrice weekly for three weeks) alone or in combination with crizotinib. Crizotinib in 5% DMSO was administered orally (12.5 and 25 mg/kg body weight, twice weekly for three weeks). CD44v6-targeted pro-apoptotic peptides or CD44v6-binding peptides and pro-apoptotic peptide in combination were intravenously administered to 4T1 or Panc-1 tumor-bearing mice (n = 10 per group) through the tail vein (10 mg/kg body weight, thrice weekly for 3 weeks). Primary tumor growth was monitored by measuring tumor volumes using a caliper and total photon flux in the whole body using the IVIS imaging system. The body weights and tumor ulceration were monitored throughout the treatment period. At the end of the treatments, half of the mice were used for the collection of blood, sacrificed, and the primary tumor weights and numbers of metastatic tumor nodules in the isolated lungs were determined. The remaining mice were maintained until death to determine the survival rates. The hematological parameters and liver and kidney function markers in plasma and serum samples were analyzed as described above. The normal ranges of hematological parameters of the BALB/c mouse and BALB/c nude mouse were obtained from Charles River Laboratories website (www.criver.com)."}, "[4]": {"conditions": "peptide 14.2 mg/kg i.v. thrice weekly for three weeks"}}, "note": "Residues, ends and D or L forms follow the SMILES beside them.", "data": [{"smiles": "CC[C@H](C)[C@H](NC(=O)[C@@H](NC(=O)[C@H](CC(N)=O)NC(=O)[C@H](CC(C)C)NC(=O)[C@H](CC(N)=O)NC(=O)[C@@H](N)CS)[C@@H](C)O)C(=O)N[C@@H](CC(=O)O)C(=O)N[C@H](C(=O)N[C@@H](CS)C(=O)O)[C@@H](C)O", "note": "[NLN] (H-CNLNTIDTC-OH; N-terminus and C-terminus assumed)", "values": [{"measurement": "pull-down of CD44v6 and CD44 from cell lysates", "setting": "[1]", "result": "selectively pulled down CD44v6 but not CD44"}, {"measurement": "pull-down of c-Met together with CD44v6 from cell lysates", "setting": "[1]", "result": "pulled down both c-Met and CD44v6"}, {"measurement": "HGF-induced cell migration and invasion, MDA-MB231", "setting": "[2]", "result": "inhibited"}, {"measurement": "tumor growth, lung metastasis, survival rate and TUNEL-stained apoptosis, peptide combined with crizotinib 12.5 mg/kg", "setting": "[3]", "result": "more efficiently than crizotinib alone"}, {"measurement": "primary tumor growth, lung metastasis and survival, peptide combined with crizotinib 25 mg/kg", "setting": "[3]", "result": "more efficiently than a single treatment"}, {"measurement": "body weight", "setting": "[3]; [4]", "result": "little effect"}, {"measurement": "monocyte population", "setting": "[3]; [4]", "result": "decreased below the normal ranges"}, {"measurement": "survival rate", "setting": "[3]; [4]", "result": "increased"}, {"measurement": "volumes of primary tumors", "setting": "[3]; [4]", "result": "decreased"}, {"measurement": "weights of isolated primary tumors", "setting": "[3]; [4]", "result": "decreased"}, {"measurement": "luminescence signals and total photon flux from the whole body", "setting": "[3]; [4]", "result": "decreased"}, {"measurement": "number of lung tumor nodules", "setting": "[3]; [4]", "result": "reduced number"}, {"measurement": "hematologic parameters and liver and kidney functional marker levels", "setting": "[3]", "result": "not significantly changed or remained within normal ranges"}]}, {"smiles": "CC(C)C[C@H](NC(=O)[C@H](CCC(N)=O)NC(=O)[C@H](Cc1c[nH]c2ccccc12)NC(=O)[C@H](CCC(=O)O)NC(=O)[C@H](CC(N)=O)NC(=O)[C@@H](N)CS)C(=O)N[C@@H](CCCCN)C(=O)N[C@@H](CO)C(=O)N[C@@H](CS)C(=O)O", "note": "[NEW] (H-CNEWQLKSC-OH; N-terminus and C-terminus assumed)", "values": [{"measurement": "pull-down of CD44v6 and CD44 from cell lysates", "setting": "[1]", "result": "selectively pulled down CD44v6 but not CD44"}, {"measurement": "pull-down of c-Met together with CD44v6 from cell lysates", "setting": "[1]", "result": "pulled down only CD44v6"}, {"measurement": "HGF-induced cell migration and invasion, MDA-MB231", "setting": "[2]", "result": "inhibited"}, {"measurement": "tumor growth, lung metastasis, survival rate and TUNEL-stained apoptosis, peptide combined with crizotinib 12.5 mg/kg", "setting": "[3]", "result": "more efficiently than crizotinib alone"}, {"measurement": "primary tumor growth, lung metastasis and survival, peptide combined with crizotinib 25 mg/kg", "setting": "[3]", "result": "more efficiently than a single treatment"}, {"measurement": "body weight", "setting": "[3]; [4]", "result": "little effect"}, {"measurement": "survival rate", "setting": "[3]; [4]", "result": "increased"}, {"measurement": "volumes of primary tumors", "setting": "[3]; [4]", "result": "decreased"}, {"measurement": "weights of isolated primary tumors", "setting": "[3]; [4]", "result": "decreased"}, {"measurement": "luminescence signals and total photon flux from the whole body", "setting": "[3]; [4]", "result": "decreased"}, {"measurement": "number of lung tumor nodules", "setting": "[3]; [4]", "result": "reduced number"}, {"measurement": "hematologic parameters and liver and kidney functional marker levels", "setting": "[3]", "result": "not significantly changed or remained within normal ranges"}]}]}
